From patent publication US9957263B2, “Bromodomain inhibitors” (AbbVie Inc., priority 2013, dated 2018)

Columns and labels:
BRD4 (BDI_K57-E168) = BRD4 (BDI_K57-E168) (Homo sapiens (Human), UniProt O60885); assay: TR-FRET bromodomain binding assay, BRD4 first bromodomain; settings: His-tagged BD1, Alexa647-labeled probe 100 nM
Outline: (§1)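 Probe displacement, TR-FRET: 8 nM His-BRD4 domain, 1 nM Eu-anti-His, Alexa647 BET-inhibitor probe 100 nM (BDI)/30 nM (BDII); 20 mM Na phosphate pH 6.0, 50 mM NaCl, 1 mM DTT; cpd 50 μM-0.85 nM, 3-fold; 1 h RT; Ex 340/[…]; IC50 → Ki.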

BRD4 (BDII_E352-M457) = BRD4 (BDII_E352-M457) (Homo sapiens (Human), UniProt O60885); assay: TR-FRET bromodomain binding assay, BRD4 second bromodomain; settings: His-tagged BD2, Alexa647-labeled probe 30 nM
Outline: as §1

Ki (BRD4 (BDI_K57-E168))	Ki (BRD4 (BDII_E352-M457))	SMILES
6 nM	5.8 nM	Cn1cc(-c2cc(S(C)(=O)=O)ccc2NC2CCN(S(=O)(=O)Cc3ccccc3)CC2)c2cc[nH]c2c1=O [Example 101, 4-[2-{[1-(benzylsulfonyl)piperidin-4-yl]amino}-5-(methylsulfonyl)phenyl]-6-methyl-1,6-dihydro-7H-pyrrolo[2,3-c]pyridin-7-one]
7.2 nM	17 nM	Cn1cc(-c2cc(S(C)(=O)=O)ccc2NC2CCN(S(=O)(=O)c3cccc(C#N)c3)CC2)c2cc[nH]c2c1=O [Example 105, 3-[(4-{[2-(6-methyl-7-oxo-6,7-dihydro-1H-pyrrolo[2,3-c]pyridin-4-yl)-4-(methylsulfonyl)phenyl]amino}piperidin-1-yl)sulfonyl]benzonitrile]
7.9 nM	6.5 nM	Cn1cc(-c2cc(S(C)(=O)=O)ccc2NC2CCN(S(=O)(=O)c3cccs3)CC2)c2cc[nH]c2c1=O [Example 106, 6-methyl-4-[5-(methylsulfonyl)-2-{[1-(thiophen-2-ylsulfonyl)piperidin-4-yl]amino}phenyl]-1,6-dihydro-7H-pyrrolo[2,3-c]pyridin-7-one]
5.4 nM	10 nM	CSCCCN[C@H]1CC[C@H](Nc2ccc(S(C)(=O)=O)cc2-c2cn(C)c(=O)c3[nH]ccc23)CC1 [Example 112, 6-methyl-4-{2-[(trans-4-{[3-(methylsulfanyl)propyl]amino}cyclohexyl)amino]-5-(methylsulfonyl)phenyl}-1,6-dihydro-7H-pyrrolo[2,3-c]pyridin-7-one]
2.5 nM	7 nM	Cn1cc(-c2cc(S(C)(=O)=O)ccc2N[C@H]2CC[C@H](NCc3ccc(Cl)cc3)CC2)c2cc[nH]c2c1=O [Example 113, 4-[2-({trans-4-[(4-chlorobenzyl)amino]cyclohexyl}amino)-5-(methylsulfonyl)phenyl]-6-methyl-1,6-dihydro-7H-pyrrolo[2,3-c]pyridin-7-one]
5.22 nM	120 nM	Cn1cc(-c2cc(S(C)(=O)=O)ccc2Oc2ccc(F)cc2F)c2cc(CN3CCN(C4CC4)CC3)[nH]c2c1=O [Example 115, 2-[(4-cyclopropylpiperazin-1-yl)methyl]-4-[2-(2,4-difluorophenoxy)-5-(methylsulfonyl)phenyl]-6-methyl-1,6-dihydro-7H-pyrrolo[2,3-c]pyridin-7-one]
6.09 nM	3.39 nM	CCS(=O)(=O)c1ccc(Oc2ccc(F)cc2F)c(-c2cn(C)c(=O)c3[nH]c(-c4ccnn4-c4ccccc4)cc23)c1 [Example 117, 4-[2-(2,4-difluorophenoxy)-5-(ethylsulfonyl)phenyl]-6-methyl-2-(1-phenyl-1H-pyrazol-5-yl)-1,6-dihydro-7H-pyrrolo[2,3-c]pyridin-7-one]
> 238 nM	158 nM	CCS(=O)(=O)c1ccc(Oc2c(C)cccc2Cl)c(-c2cn(C)c(=O)c3[nH]c(C(=O)NCC#N)cc23)c1 [Example 120, 4-[2-(2-chloro-6-methylphenoxy)-5-(ethylsulfonyl)phenyl]-N-(cyanomethyl)-6-methyl-7-oxo-6,7-dihydro-1H-pyrrolo[2,3-c]pyridine-2-carboxamide]
62.1 nM	7.2 nM	CCS(=O)(=O)c1ccc(Oc2c(C)cccc2Cl)c(-c2cn(C)c(=O)c3[nH]c(C(=O)NC(C)C(=O)NC)cc23)c1 (stereo not drawn) [Example 121, 4-[2-(2-chloro-6-methylphenoxy)-5-(ethylsulfonyl)phenyl]-6-methyl-N-[1-(methylamino)-1-oxopropan-2-yl]-7-oxo-6,7-dihydro-1H-pyrrolo[2,3-c]pyridine-2-carboxamide]
39.1 nM	7.58 nM	CCS(=O)(=O)c1ccc(Oc2c(C)cccc2Cl)c(-c2cn(C)c(=O)c3[nH]c(C(=O)NCC(=O)N4CCCCC4)cc23)c1 [Example 122, 4-[2-(2-chloro-6-methylphenoxy)-5-(ethylsulfonyl)phenyl]-6-methyl-7-oxo-N-[2-oxo-2-(piperidin-1-yl)ethyl]-6,7-dihydro-1H-pyrrolo[2,3-c]pyridine-2-carboxamide]
39.9 nM	5.6 nM	CCS(=O)(=O)c1ccc(Oc2c(C)cccc2Cl)c(-c2cn(C)c(=O)c3[nH]c(C(=O)NCCC#N)cc23)c1 [Example 123, 4-[2-(2-chloro-6-methylphenoxy)-5-(ethylsulfonyl)phenyl]-N-(2-cyanoethyl)-6-methyl-7-oxo-6,7-dihydro-1H-pyrrolo[2,3-c]pyridine-2-carboxamide]
88.3 nM	10.1 nM	CCS(=O)(=O)c1ccc(Oc2c(C)cccc2Cl)c(-c2cn(C)c(=O)c3[nH]c(C(=O)NCC(=O)NC)cc23)c1 [Example 124, 4-[2-(2-chloro-6-methylphenoxy)-5-(ethylsulfonyl)phenyl]-6-methyl-N-[2-(methylamino)-2-oxoethyl]-7-oxo-6,7-dihydro-1H-pyrrolo[2,3-c]pyridine-2-carboxamide]

Continued, compound first:

SMILES	Ki (BRD4 (BDI_K57-E168))	Ki (BRD4 (BDII_E352-M457))
CC(=O)Nc1ccc(S(=O)(=O)N2CCC(Nc3ccc(S(C)(=O)=O)cc3-c3cn(C)c(=O)c4[nH]ccc34)CC2)cc1 [Example 103, N-{4-[(4-{[2-(6-methyl-7-oxo-6,7-dihydro-1H-pyrrolo[2,3-c]pyridin-4-yl)-4-(methylsulfonyl)phenyl]amino}piperidin-1-yl)sulfonyl]phenyl}acetamide]	4.1 nM	4.9 nM
COc1ccc(S(=O)(=O)N2CCC(Nc3ccc(S(C)(=O)=O)cc3-c3cn(C)c(=O)c4[nH]ccc34)CC2)cc1 [Example 104, 4-[2-({1-[(4-methoxyphenyl)sulfonyl]piperidin-4-yl}amino)-5-(methylsulfonyl)phenyl]-6-methyl-1,6-dihydro-7H-pyrrolo[2,3-c]pyridin-7-one]	4.6 nM	4 nM
Cn1cc(-c2cc(S(C)(=O)=O)ccc2N[C@H]2CC[C@H](NCc3cccs3)CC2)c2cc[nH]c2c1=O [Example 107, 6-methyl-4-[5-(methylsulfonyl)-2-({trans-4-[(thiophen-2-ylmethyl)amino]cyclohexyl}amino)phenyl]-1,6-dihydro-7H-pyrrolo[2,3-c]pyridin-7-one]	3 nM	8.9 nM
CC(=O)Nc1ccc(CN[C@H]2CC[C@H](Nc3ccc(S(C)(=O)=O)cc3-c3cn(C)c(=O)c4[nH]ccc34)CC2)cc1 [Example 108, N-(4-{[(trans-4-{[2-(6-methyl-7-oxo-6,7-dihydro-1H-pyrrolo[2,3-c]pyridin-4-yl)-4-(methylsulfonyl)phenyl]amino}cyclohexyl)amino]methyl}phenyl)acetamide]	3.4 nM	5.6 nM
Cn1cc(-c2cc(S(C)(=O)=O)ccc2N[C@H]2CC[C@H](NCc3ccc(F)cc3F)CC2)c2cc[nH]c2c1=O [Example 109, 4-[2-({trans-4-[(2,4-difluorobenzyl)amino]cyclohexyl}amino)-5-(methylsulfonyl)phenyl]-6-methyl-1,6-dihydro-7H-pyrrolo[2,3-c]pyridin-7-one]	1.6 nM	8.3 nM
Cn1cc(-c2cc(S(C)(=O)=O)ccc2N[C@H]2CC[C@H](NCc3ccc4ccccc4c3)CC2)c2cc[nH]c2c1=O [Example 110, 6-methyl-4-[5-(methylsulfonyl)-2-({trans-4-[(naphthalen-2-ylmethyl)amino]cyclohexyl}amino)phenyl]-1,6-dihydro-7H-pyrrolo[2,3-c]pyridin-7-one]	1.1 nM	2.2 nM
COCCN[C@H]1CC[C@H](Nc2ccc(S(C)(=O)=O)cc2-c2cn(C)c(=O)c3[nH]ccc23)CC1 [Example 111, 4-[2-({trans-4-[(2-methoxyethyl)amino]cyclohexyl}amino)-5-(methylsulfonyl)phenyl]-6-methyl-1,6-dihydro-7H-pyrrolo[2,3-c]pyridin-7-one]	4.6 nM	12 nM
Cn1cc(-c2cc(S(C)(=O)=O)ccc2Oc2ccc(F)cc2F)c2cc(CN3CCN(c4nccs4)CC3)[nH]c2c1=O [Example 114, 4-[2-(2,4-difluorophenoxy)-5-(methylsulfonyl)phenyl]-6-methyl-2-{[4-(1,3-thiazol-2-yl)piperazin-1-yl]methyl}-1,6-dihydro-7H-pyrrolo[2,3-c]pyridin-7-one]	6.93 nM	80.7 nM
Cn1cc(-c2cc(S(C)(=O)=O)ccc2Oc2ccc(F)cc2F)c2cc(CN3CCN(C4CCOCC4)CC3)[nH]c2c1=O [Example 116, 4-[2-(2,4-difluorophenoxy)-5-(methylsulfonyl)phenyl]-6-methyl-2-{[4-(tetrahydro-2H-pyran-4-yl)piperazin-1-yl]methyl}-1,6-dihydro-7H-pyrrolo[2,3-c]pyridin-7-one]	3.33 nM	98.4 nM
CCS(=O)(=O)c1ccc(Oc2ccc(F)cc2F)c(-c2cn(C)c(=O)c3[nH]c(-c4cccnc4N4CCOCC4)cc23)c1 [Example 118, 4-[2-(2,4-difluorophenoxy)-5-(ethylsulfonyl)phenyl]-6-methyl-2-[2-(morpholin-4-yl)pyridin-3-yl]-1,6-dihydro-7H-pyrrolo[2,3-c]pyridin-7-one]	99.2 nM	367 nM
CCNC(=O)c1cc2c(-c3cc(S(=O)(=O)CC)ccc3Oc3c(C)cccc3NCC3CC3)cn(C)c(=O)c2[nH]1 [Example 119, 4-[2-{2-[(cyclopropylmethyl)amino]-6-methylphenoxy}-5-(ethylsulfonyl)phenyl]-N-ethyl-6-methyl-7-oxo-6,7-dihydro-1H-pyrrolo[2,3-c]pyridine-2-carboxamide]	1510 nM	6.69 nM
CN1CCC(N2CCN(Cc3cc4c(-c5cc(S(C)(=O)=O)ccc5Oc5ccc(F)cc5F)cn(C)c(=O)c4[nH]3)CC2)CC1 [Example 125, 4-[2-(2,4-difluorophenoxy)-5-(methylsulfonyl)phenyl]-6-methyl-2-{[4-(1-methylpiperidin-4-yl)piperazin-1-yl]methyl}-1,6-dihydro-7H-pyrrolo[2,3-c]pyridin-7-one]	8.47 nM	189 nM
